Source: patent US20080200439A1, “Methods and compositions for modulating BK channel activity and vasodilation” (University of Tennessee Research Foundation, priority 2006, published 2008)
“And” between values parts separate entries of the source, which are not always exact repeats. Equal values may be shown once. Read-outs that look alike come from different tables or passages of the source.

How the values were obtained:
[1] = target: cbv1+β1 channels (UniProt Q16558+Q62976); experiment: Patch-clamp of heteromeric cbv1+β1 channels expressed in Xenopus oocytes; type: cell-based, rat
Description: cRNA Preparation and Injection into Xenopus Oocytes. Full-length cDNA coding for cbv1-subunits was cloned from rat cerebral artery myocytes by PCR and ligated to the PCR-XL-TOPO cloning vector (Invitrogen Corp., Carlsbad, Calif., United States of America) (Jaggar et al., 2005). cDNA coding for cbv1-subunits was cleaved from the cloning vector by BamHI (Invitrogen Corp., Carlsbad, Calif., United States of America) and XhoI (Promega, Madison, Wis., United States of America) and directly inserted into the pOX vector for expression in Xenopus oocytes. pOX-cbv1 was linearized with NotI (Promega, Madison, Wis., United States of America) and transcribed in vitro using T3 polymerase. Beta,-subunit cDNA inserted into the EcoR I/Sal I sites of the pCl-neo expression vector was linearized with NotI and transcribed in vitro using T7 polymerase. Beta4-subunit cDNA inserted into the pOx vector was linearized by NotI and transcribed using T3 polymerase. The mMessage-mMachine kit (Ambion Inc., Austin, Tex., United States of America) was used for transcription. The pOX vector and the cDNA coding for β1-subunits were generous gifts from Aguan Wei (Washington University, Saint Louis, Mo., United States of America) and Maria Garcia (Merck Research Laboratories, Whitehouse Station, N.J., United States of America).
Oocytes were removed from Xenopus laevis and prepared as described (Dopico et al., 1998). cRNA was dissolved in […] at 5 (cbv1) and 15 (β1 or β4) ng/μl; 1-μl aliquots were stored at −70° C. Cbv1 cRNA was injected alone (2.5 ng/μp) or coinjected with either β1 or β4 (7.5 ng/μl) cRNAs, giving molar ratios ≧6:1 (β:α). cRNA injection (23 nl/oocyte) was conducted using a modified micropipette (Drummond Scientific Co., Broomall, Pa., United States of America). The interval between injection and patch-clamp recordings was 48-72 h.
Electrophysiology. Oocytes were prepared for patch-clamp recordings as described (Dopico et al., 1998). Single-channel and macroscopic currents were recorded from inside-out (I/O) or outside-out (O/O) patches. For experiments with oocytes, both bath and electrode solutions contained (mM) 135 K^+ gluconate, 5 EGTA, 1 MgCl2, 15 HEPES, 10 glucose, pH 7.35. For experiments with myocytes, KCl substituted for K^+ gluconate. In all experiments, free Ca^2+ in solution was adjusted to the desired value by adding CaCl2. In most studies, free Ca^2+ in electrode solution=10 μM. In O/O studies with 17β-estradiol, however, free Ca^2+ in the electrode solution=0.3 μM. Nominal free Ca^2+ was calculated with MaxChelator Sliders (C. Patton, Stanford University, California, United States of America) and validated experimentally using Ca^2+-selective electrodes (Corning Incorporated Science Products Division, Corning, N.Y., United States of America).
Patch-recording electrodes were made as described (Dopico et al., 1998). Immediately before recording, the tip of each electrode was fire-polished on a microforge WPI MF-200 (World Precision Instruments, Inc., Sarasota, Fla., United States of America) to give resistances of 5-9 MD when filled with solution. An agar bridge with gluconate or Cl^− as the main anion (for oocyte and myocyte experiments, respectively) was used as ground electrode. After excision from the cell, the membrane patch was exposed to a stream of bath solution containing each agent at final concentration. Solutions were applied onto the patches using a pressurized system DAD12 (ALA Scientific Instruments, New York, N.Y., United States of America) via a micropipette tip with an internal diameter of 100 μm. Experiments were carried out at room temperature (21° C.).
(§1) Currents were recorded using an EPC8 amplifier (HEKA Electronics, Lambrecht/Pfalz, Germany) at 1 kHz using a low-pass, eight-pole Bessel filter 902LPF (Frequency Devices, Haverhill, Mass., United States of America). […]

[2] = target: native BK channels in rat cerebral artery myocytes (Rattus norvegicus, UniProt P97678+Q62976); experiment: Inside-out patch-clamp of native BK channels in freshly isolated cerebral artery myocytes; type: cell-based; details: I/O patches, free Ca2+i 3 μM
Description: Myocyte Isolation. Basilar and middle cerebral arteries were dissected out from each brain under a stereozoom microscope (Nikon C-PS, Tokio, Japan) and placed into ice-cold “dissociation medium” (DM) (mM): 0.16 CaCl2, 0.49 EDTA, 10 HEPES, 5 KCl, 0.5 KH2PO4, 2 MgCl2, 110 NaCl, 0.5 NaH2PO4, 10 NaHCO3, 0.02 phenol red, 10 taurine, 10 glucose. Each artery was cut into 1-2 mm long rings (˜30 rings/experiment). Rings were put in 3 ml DM containing 0.03% papain, 0.05% bovine serum albumin (BSA) and 0.004% dithiothreitol (DTT) for 15 min at 37° C. in a polypropylene centrifuge tube, and then incubated in a shaking water bath at 37° C. and 60 oscillations/min. for 15 min. The prepartion was then centrifuged several times as described (Liu et al., 2004). […]
Electrophysiology. […] Single-channel and macroscopic currents were recorded from inside-out (I/O) or outside-out (O/O) patches. […] Nominal free Ca^2+ was calculated with MaxChelator Sliders (C. Patton, Stanford University, California, United States of America) and validated experimentally using Ca^2+-selective electrodes (Corning Incorporated Science Products Division, Corning, N.Y., United States of America). […]
as §1

Chain of cbv1+β1 channels (Q62976 1-1148 isoform Q62976-2): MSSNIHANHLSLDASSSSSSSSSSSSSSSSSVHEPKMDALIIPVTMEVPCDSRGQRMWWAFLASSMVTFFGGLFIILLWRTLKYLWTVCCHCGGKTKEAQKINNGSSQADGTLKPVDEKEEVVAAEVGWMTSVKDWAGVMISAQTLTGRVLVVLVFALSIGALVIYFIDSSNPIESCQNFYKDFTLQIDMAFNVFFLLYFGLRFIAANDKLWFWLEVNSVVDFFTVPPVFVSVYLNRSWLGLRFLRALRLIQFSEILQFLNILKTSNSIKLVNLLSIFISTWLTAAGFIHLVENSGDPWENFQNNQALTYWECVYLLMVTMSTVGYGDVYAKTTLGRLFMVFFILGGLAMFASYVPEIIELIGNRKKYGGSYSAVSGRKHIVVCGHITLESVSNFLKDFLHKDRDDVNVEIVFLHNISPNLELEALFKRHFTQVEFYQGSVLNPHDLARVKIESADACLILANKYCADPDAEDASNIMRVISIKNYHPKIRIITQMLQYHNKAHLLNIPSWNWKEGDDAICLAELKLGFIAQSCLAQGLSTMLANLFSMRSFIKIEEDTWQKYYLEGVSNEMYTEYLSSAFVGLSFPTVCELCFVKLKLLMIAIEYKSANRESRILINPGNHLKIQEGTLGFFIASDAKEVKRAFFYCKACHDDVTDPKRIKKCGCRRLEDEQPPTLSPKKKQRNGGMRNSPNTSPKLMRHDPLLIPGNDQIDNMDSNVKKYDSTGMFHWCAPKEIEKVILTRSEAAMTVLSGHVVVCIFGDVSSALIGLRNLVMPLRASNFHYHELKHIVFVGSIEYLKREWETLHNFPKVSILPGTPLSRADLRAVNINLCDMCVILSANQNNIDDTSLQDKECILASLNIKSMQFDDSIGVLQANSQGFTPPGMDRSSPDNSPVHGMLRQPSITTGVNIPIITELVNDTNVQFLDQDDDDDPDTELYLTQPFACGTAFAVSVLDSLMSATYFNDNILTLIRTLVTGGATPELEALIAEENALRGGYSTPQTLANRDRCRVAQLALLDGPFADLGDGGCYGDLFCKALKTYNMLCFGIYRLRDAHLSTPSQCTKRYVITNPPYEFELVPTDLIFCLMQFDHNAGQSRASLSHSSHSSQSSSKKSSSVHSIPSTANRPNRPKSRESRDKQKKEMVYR
Chain of cbv1+β1 channels (Q16558 whole entry): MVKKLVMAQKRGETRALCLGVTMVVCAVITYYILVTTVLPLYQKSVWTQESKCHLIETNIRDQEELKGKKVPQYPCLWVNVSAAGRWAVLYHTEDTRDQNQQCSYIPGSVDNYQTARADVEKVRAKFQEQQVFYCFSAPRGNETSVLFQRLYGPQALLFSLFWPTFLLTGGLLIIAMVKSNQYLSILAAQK
Chain of native BK channels in rat cerebral artery myocytes (Q62976 1-1148 isoform Q62976-2): as the sequence (Q62976 1-1148 isoform Q62976-2) above
Chain of native BK channels in rat cerebral artery myocytes (P97678 whole entry): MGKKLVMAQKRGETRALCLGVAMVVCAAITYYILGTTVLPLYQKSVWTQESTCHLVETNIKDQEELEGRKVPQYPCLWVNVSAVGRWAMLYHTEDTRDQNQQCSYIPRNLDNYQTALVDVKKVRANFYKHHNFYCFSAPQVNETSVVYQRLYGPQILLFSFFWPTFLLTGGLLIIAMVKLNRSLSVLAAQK

C[C@H](CCC(=O)O)[C@H]1CC[C@H]2[C@@H]3CC[C@@H]4C[C@H](O)CC[C@]4(C)[C@H]3CC[C@]12C [LC, 5β-cholanic acid 3α-ol]
LC-activation (as a percentage of NPo in vehicle) ([1]; 150 μM, 0.1 μM Ca2+): 139.9±32.9%
Emax at 150 µM ([1]; 150 μM, 1 μM Ca2+, read-out: LC-activation (as a percentage of NPo in vehicle), maximal effect): 244 ± 58.9%
Percent of control at 150 µM ([1]; 150 μM, 30 μM Ca2+i, read-out: NPo in LC (% of control)): 172 ± 9.5%
Decrease in mean close time ([1]; 150 μM, FIG. 4B): −60%
Percent of control at 150 µM ([1]; 150 μM, patches with N=1, read-out: Channel mean closed time (% of control)): 41%
Percent of control at 150 µM ([1]; 150 μM, patches with N=1, read-out: Channel mean open time (% of control)): 137%
Increase in Po ([1]; 150 μM, single-channel I/O patch (N=1), +20 mV, Ca2+i 10 μM): 320%
Emax ([1]; I/O patches, Ca2+i 10 μM, read-out: NPo at Emax (% of control)): 290 ± 45%
EC50 ([1]; I/O patches, Ca2+i 10 μM, ±20 mV, read-out: EC50 for increase in NPo): 43.5 µM and 46 µM
EC50 ([2]; Vm −40 to −30 mV, read-out: EC50 for increase in NPo): 46 ± 6 µM
Emax ([2]; read-out: NPo at Emax (% of control)): 350%
